Assay results: US8685916B2, “Opioid prodrugs with heterocyclic linkers” (Signature Therapeutics, Inc., priority 2011, dated 2014)

Experiments:
[1] = Oral administration of hydrocodone prodrugs KC-40 or KC-50 co-dosed with Compound 109 to rats; settings: rats, PO
[2] = Oral administration of oxycodone prodrugs co-dosed with trypsin inhibitor Compound 109 to rats; type: in vivo, rat
[3] = Spacer leaving group cyclization release rate in pH 7.4 phosphate buffer
[4] = Oral administration of Compound KC-55 co-dosed with Compound 109 to rats; settings: male, Sprague Dawley, rat, plasma, 36 umol/kg
[5] = Pharmacokinetics following PO administration of Compound KC-55 to rats; settings: oxycodone in rat plasma, oxycodone 10 mg/kg (28 μmol/kg)

SMILES: N=C(N)c1ccc2cc(OC(=O)c3ccc(N=C(N)N)cc3)ccc2c1 [Compound 109, 6-carbamimidoylnaphthalen-2-yl 4-(diaminomethyleneamino)benzoate]
- effect of co-dosed trypsin inhibitor on release of hydrocodone by prodrugs KC-40 and KC-50 [1]: ability to attenuate release of hydrocodone
- effect of co-dosed trypsin inhibitor on release of oxycodone by prodrugs KC-12 and KC-17 [2]: ability to attenuate release of oxycodone

SMILES: COc1ccc2c3c1O[C@H]1C(OC(=O)N4CCCC[C@@H]4CN)=CC[C@@]4(O)[C@@H](C2)N(C)CC[C@]314 [Compound KC-18, N-(oxycodone-6-enol-carbonyl)-R-(piperidine-2-methylamine)]
- half-life at 2.18 mM [3]: 52.5 ± 0.96 min

SMILES: COc1ccc2c3c1O[C@H]1C(=O)CC[C@@]4(O)[C@@H](C2)N(C)CC[C@]314 [Oxycodone, oxycodone]
- Cmax [4]: 18.8 ng/mL
- OC Cmax ± sd [5]: 14.7 ± 6.5^ ng/mL
